Tests used:
[1] = target: T1, RSV A2_F (Human respiratory syncytial virus A, UniProt P03420); experiment: RSV fusion assay (luciferase reporter, HEK 293T/17 cells transfected with A2_F); assay type: cell-based; settings: Fusion activity IC50 μM, HEK 293T/17 cells, 24 hr
T1 construct: expressed in transfected cells; host or cells: HEK 293T/17
Protocol: HEK 293T/17 cells were cultured in T75 culture flasks in Dulbecco's medium (DMEM) containing 10% FBS and 1× Penicillin-Streptomycin (Pen/Strep) and warmed to 37° C. prior to use. The cells were passaged by first washing briefly with 3 ml phosphate buffered saline (PBS) followed by a 4 min incubation with […] at 37° C. 7 ml media was then added to the flask and the cells dispersed via pipetting (×3) against the bottom of the flask. Two further T75 flasks were each seeded with 2×10^6 cells in 15 ml fresh media.
Cells were seeded on the T75 plates at the same density as on the 6-well plates the area of a T75 flask and one 1.75 cm radius well from a 6-well plate were compared. 7.79×2 ml of 3×10^5 cells ml^−1 was used to seed a single T75 flask.
HEK cells were removed from a T75 flask as described above. The cells were counted and diluted to 3×10^5 cells/ml in fresh media. Two T75 flasks were each seeded with 15.58 ml diluted cells.
The plasmid DNA (for pFR-Luc and pcDNA3.1_Gal4/NFκB) to be transfected into the HEK cells was first prepared in serum free media (DMEM+Pen/Strep) containing the transfection reagent Fugene 6 (Promega). Transfections were set up as follows (Luc=pFR_Luc, Gal4=pcDNA3.1+_Gal4/NFκB, A2_F=pcDNA3.1+_A2_F)
Serum free media was placed in a 1.5 ml eppendorf tube then the fugene 6 was added into the media. The tube was vortexed for 1 s before being incubated at RT for 5 min. The plasmid DNA was then added to the tube, vortexed for 1 s, then incubated at RT for 15 min
The transfection reagents were then added to the appropriate T75 flask by tipping the flask on end and adding the reagents directly to the media already in the flask. The flask was then tipped on its back so the media could be mixed thoroughly whilst not disturbing the cells before placing the flask the right way up and incubating overnight at 37° C. and 5% CO2.
Compounds were diluted (in a polypropylene round-bottomed 96 well plate) 1:3 in a twelve point dilution curve to give top [final] of either 3.3 μM, 1 μM, 500 nM 200 nM or 100 nM. The Control compound was always run at a concentration of 100 nM.
The cells were then counted and diluted to 4×10^5 cells/ml in fresh media. 50 μl of transfection population 1 cells were added to all wells of the assay plates. 100 μl diluted compound (2 rows per compound), standard curve (one row) and controls (100 nM RV (100% inhibition, four wells), DMSO (0% inhibition, eight wells)) were added to the appropriate wells. 50 μl of the diluted (4×10^5 cells/ml) transfection population 2 cells when then added to all wells.
The plates were then incubated for 24 hr at 37° C. and 5% CO2
Buffers were prepared for the luciferase assay (20 mM tricine, 10 mM MgSO4, 1 mM EDTA, 10 mM DTT) and lysis (25 mM tris-phosphate, 8 mM MgCl2, 1 mM DTT, 1% Triton X-100, 15% glycerol) and stored at −20° C.
Luminescence was measured as described:
Media was discarded into Virkon and the plates washed with 100 ul PBS per well. 20 ul/well of lysis buffer was added to each well and incubated shaking for 5 min at RT. Luciferin was added to LAAB at a dilution of 1:50 to give a working luciferin buffer. 100 μl working luciferin buffer was added to each well and luminescence was measured immediately. […]

[2] = Liver microsomal stability, dog; assay type: in vitro ADME; settings: male, Beagle, pooled liver microsomes, pH 7.4, 0.5 mg/mL protein, read-out: Liver Microsomal Stability (T1/2/mins) dog
Protocol: Microsomal Incubation: Experimental Procedure
Pooled human liver microsomes (pooled male and female), pooled rat liver microsomes (male Sprague Dawley rats) and pooled dog liver microsomes (male Beagle dog) are purchased from a reputable commercial supplier and stored at −80° C. prior to use.
Microsomes (final protein concentration 0.5 mg/mL), 0.1 M phosphate buffer pH 7.4 and test compound (final substrate concentration 3 μM; final DMSO concentration 0.25%) are pre-incubated at 37° C. prior to the addition of NADPH (final concentration 1 mM) to initiate the reaction. The final incubation volume is 50 μL. A control incubation is included for each compound tested where 0.1 M phosphate buffer pH 7.4 is added instead of NADPH (minus NADPH). Two control compounds are included with each species. All incubations are performed singularly for each test compound.
Compounds are incubated for 0, 5, 15, 30 and 45 min. The control (minus NADPH) is incubated for 45 min only. […] Following protein precipitation, the sample supernatants are combined in cassettes of up to 4 compounds, internal standard is added and samples analysed by LC-MS/MS. From a plot of ln peak area ratio (compound peak area/internal standard peak area) against time, the gradient of the line is determined. Subsequently, half-life and intrinsic clearance are calculated

T1 sequence (P03420 137-574): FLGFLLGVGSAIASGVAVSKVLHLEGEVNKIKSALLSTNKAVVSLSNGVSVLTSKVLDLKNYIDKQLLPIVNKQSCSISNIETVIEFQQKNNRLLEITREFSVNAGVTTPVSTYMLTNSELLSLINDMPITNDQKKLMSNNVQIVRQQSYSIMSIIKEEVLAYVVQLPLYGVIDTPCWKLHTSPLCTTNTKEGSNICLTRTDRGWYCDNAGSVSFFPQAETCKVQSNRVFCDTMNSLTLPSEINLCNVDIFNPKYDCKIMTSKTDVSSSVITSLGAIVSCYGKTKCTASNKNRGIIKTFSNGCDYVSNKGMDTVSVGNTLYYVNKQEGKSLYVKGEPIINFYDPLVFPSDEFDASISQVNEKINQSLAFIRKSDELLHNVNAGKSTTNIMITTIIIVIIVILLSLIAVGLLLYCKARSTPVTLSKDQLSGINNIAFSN
T1 sequence (P03420 26-109): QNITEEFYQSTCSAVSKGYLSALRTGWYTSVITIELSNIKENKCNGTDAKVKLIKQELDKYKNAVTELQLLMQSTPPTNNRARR

NC1CCN(c2ncc(CN3C(=O)C4(CC4)c4ccc(F)cc43)c(N[C@H]3CC[C@H](O)CC3)n2)C1 (some centres unmarked) [Compound 2, 1′-((2-(3-Aminopyrrolidin-1-yl)-4-(((1r,4r)-4-hydroxycyclohexyl)amino)pyrimidin-5-yl)methyl)-6′-fluorospiro[cyclopropane-1,3′-indolin]-2′-one]
IC50 [1]: 0.237 µM
half-life at 3 μM [2]: > 240 min

Source: US10603319B2, “Pyrimidine derivatives and their use in treating or preventing a respiratory syncytial virus infection” (REVIRAL LIMITED, priority 2016, dated 2020)
